The test has as its target Bile salt export pump (Homo sapiens, UniProt O95342). The class given is ADME.

Structures can show the parent of a compound that is named as a salt. *1 amine or outer side, *2 acyl side, *3 side chain or, on linkers, in order; H or OH if unused. Where a SMILES comes first, the peptide text is derived from it. Bridges are numbered along the chain shown (N, C = ends). [ ]: non-standard residue; d: D form. The star is where a group is joined. ξ: configuration not given here. ΔAla(Z-3-ureido) = NC(=O)N/C=C(\N)C(=O)O; X1 = N=C1NCCC(C(N[*:1])C(=O)[*:2])N1; ξβ3hOrn = NCCCC(N)CC(=O)*; Dap = NC[CH](N)C(=O)O

Consider `CCOC(=O)[C@H](CCc1ccccc1)N[C@@H](C)C(=O)N1N=C(C(C)(C)C)S[C@H]1C(=O)O` [UTIBAPRIL], for which the IC50 is below 13.5 µM.

As for `C[N+](C)(C)CC(O)CC(=O)[O-]` (centres undefined) [CARNITINE], the IC50 was above 1000 µM.

For `CC1(C)O[C@@H]2C[C@H]3[C@@H]4CCC5=CC(=O)CC[C@]5(C)[C@@]4(F)[C@@H](O)C[C@]3(C)[C@]2(C(=O)CCl)O1` [HALCINONIDE], the IC50 is below 10 µM.

`O=c1ncn2nc(Sc3ccc(F)cc3F)ccc2c1-c1c(Cl)cccc1Cl` [NEFLAMAPIMOD]: the IC50 was below 10 µM.

With `CC1(C)Oc2ccc(C#N)cc2[C@@H](N2CCCC2=O)[C@@H]1O` [LEVCROMAKALIM], the IC50 was 353 µM.

On to `COc1ccccc1N1CCN(CCCNc2cc(=O)n(C)c(=O)n2C)CC1`, for which the IC50 was below 11.3 µM.

Turning to `Nc1ccc([As](=O)(O)O)cc1`, the IC50 is above 1000 µM.

Turning to `CN[C@H]1CC[C@@H](c2ccc(Cl)c(Cl)c2)c2ccccc21` [SERTRALINE], the IC50 worked out at 29.3 µM.

As for `CC(C)(C)NCC(O)COc1cccc2c1CC(O)C(O)C2` (centres undefined) [NADOLOL], the IC50 was above 1000 µM.

Take `Cc1cccc(C)c1CNc1cc(C(=O)NCCO)cn2c(C)c(C)nc12` [LINAPRAZAN]: the IC50 is below 10 µM.

For the compound `CCN(CC)Cc1cc(Nc2ccnc3cc(Cl)ccc23)ccc1O` [AMODIAQUINE], the IC50 amounted to 77.8 µM.

On to `Cc1noc(NS(=O)(=O)c2ccc(N)cc2)c1C` [SULFISOXAZOLE], for which the IC50 is above 1000 µM.

Turning to `CCCCNc1ccc(C(=O)OCCOCCOCCOCCOCCOCCOCCOCCOCCOC)cc1` [BENZONATATE], the IC50 was below 10 µM.

With `N#Cc1ccccc1OCC(O)CNCCNC(=O)Cc1ccc(O)cc1` (centres undefined) [EPANOLOL], the IC50 is 244 µM.

Take `CN1CCN(CC/C=C2/c3ccccc3Sc3ccc(S(=O)(=O)N(C)C)cc32)CC1` [THIOTHIXENE]: the IC50 is 30.4 µM.

Turning to `CCOC(=O)C1=C(COCCN)NC(C)=C(C(=O)OC)C1c1ccccc1Cl` (centres undefined) [AMLODIPINE], the IC50 was 16 µM.

Regarding `NS(=O)(=O)c1cc(C(=O)O)cc(N2CCCC2)c1Oc1ccccc1` [PIRETANIDE], the IC50 was above 791 µM.

Take `CCN1CCC[C@H]1CNC(=O)c1c(OC)ccc(Br)c1OC` [REMOXIPRIDE]: the IC50 is below 10 µM.

As for `COc1cc(NS(=O)(=O)c2ccc(N)cc2)nc(OC)n1` [SULFADIMETHOXINE], the IC50 is above 1000 µM.

On to `CN(Cc1cc(Br)cc(Br)c1N)C1CCCCC1` [BROMHEXINE], for which the IC50 is 20.3 µM.

Consider `CN1CCN(CC(=O)N2c3ccccc3C(=O)Nc3cccnc32)CC1` [PIRENZEPINE], for which the IC50 was above 1000 µM.

On to `CC(C)(C)NC[C@H](O)COc1nsnc1N1CCOCC1` [TIMOLOL], for which the IC50 is above 1000 µM.

With `Oc1cccc2cccnc12` [OXYQUINOLINE], the IC50 was above 1000 µM.

On to `Nc1ncnc2nc[nH]c12` [ADENINE], for which the IC50 is above 1000 µM.

Turning to `CC[C@H]1OC(=O)[C@H](C)[C@H](O[C@H]2C[C@@](C)(OC)[C@@H](O)[C@H](C)O2)[C@H](C)[C@@H](O[C@@H]2O[C@H](C)C[C@H](N(C)C)[C@H]2O)[C@](C)(O)C[C@@H](C)CN(C)[C@H](C)[C@H](O)[C@]1(C)O`, the IC50 was above 1000 µM.

Consider `CC1Cc2ccccc2N1NC(=O)c1ccc(Cl)c(S(N)(=O)=O)c1` (centres undefined) [INDAPAMIDE], for which the IC50 stood at 145 µM.

With `CCN1CCN(c2cc3c(cc2F)c(=O)c(C(=O)O)cn3C2CC2)CC1` [ENROFLOXACIN], the IC50 was above 1000 µM.

Regarding `NC(=O)CN1CCCC1=O`, the IC50 was above 1000 µM.

With `CCCCNc1cc(C(=O)O)cc(S(N)(=O)=O)c1Oc1ccccc1` [BUMETANIDE], the IC50 was 526 µM.

Turning to `COC(=O)C1=C(C)NC(C)=C(C(=O)OCCN(C)Cc2ccccc2)C1c1cccc([N+](=O)[O-])c1` (centres undefined) [NICARDIPINE], the IC50 was below 10 µM.

With `Nc1cc(-c2ccncc2)c[nH]c1=O` [INAMRINONE], the IC50 was determined as 371 µM.

For the compound `CCOCn1cnc2c1c(=O)n(CCCCC(C)(C)O)c(=O)n2C` [TORBAFYLLINE], the IC50 amounted to 305 µM.

Take `CCCCc1nc(Cl)c(CO)n1Cc1ccc(-c2ccccc2-c2nn[nH]n2)cc1` [LOSARTAN]: the IC50 was below 10 µM.

As for `CC(CCC(=O)O)C1CCC2C3C(=O)CC4CC(=O)CCC4(C)C3CC(=O)C12C` (centres undefined), the IC50 was 202 µM.

For `CC(C)C(=O)Nc1ccc([N+](=O)[O-])c(C(F)(F)F)c1` [FLUTAMIDE], the IC50 is 60.8 µM.

For `CC(NC(C)(C)C)C(=O)c1cccc(Cl)c1` (centres undefined) [BUPROPION], the IC50 was above 1000 µM.

Consider `CC(C)(Oc1ccc(CCNC(=O)c2ccc(Cl)cc2)cc1)C(=O)O` [BEZAFIBRATE], for which the IC50 was 181 µM.

`CCOC(=O)[C@H](CCc1ccccc1)N[C@@H](C)C(=O)N1CC2(C[C@H]1C(=O)O)SCCS2` [SPIRAPRIL HYDROCHLORIDE]: the IC50 was found to be 47.1 µM.

For `O=c1[nH]cc(F)c(=O)[nH]1` [FLUOROURACIL], the IC50 was above 1000 µM.

As for `O=CN(O)C(CCCc1ncccn1)CS(=O)(=O)N1CCN(c2ccc(F)cc2)CC1` (centres undefined), the IC50 was below 16.4 µM.

For the compound `CCCN1CCCC[C@H]1C(=O)Nc1c(C)cccc1C` [ROPIVACAINE], the IC50 worked out at 646 µM.

Consider `O=C(O)CCn1c2c(c3ccccc31)C[C@H](NS(=O)(=O)c1ccc(F)cc1)CC2` [RAMATROBAN], for which the IC50 worked out at 62.4 µM.

For `Cc1c(C(=O)NN2CCCCC2)nn(-c2ccc(Cl)cc2Cl)c1-c1ccc(Cl)cc1` [RIMONABANT], the IC50 was below 10 µM.

Consider `CCCCCCCC/C=C/CCCCCCCC(=O)OCC(COP(=O)(O)OCC[N+](C)(C)C)OC(=O)CCCCCCC/C=C/CCCCCCCC` (centres undefined), for which the IC50 is below 16 µM.

As to `O=C1CN(/N=C/c2ccc(-c3ccc([N+](=O)[O-])cc3)o2)C(O)=N1` [DANTROLENE], the IC50 turned out to be 145 µM.

On to `C=CC1=C(C(=O)O)N2C(=O)[C@@H](NC(=O)/C(=N\OCC(=O)O)c3csc(N)n3)[C@H]2SC1` [CEFIXIME], for which the IC50 is above 1000 µM.

For `N=C1NCCC(C2NC(=O)/C(=C/NC(N)=O)NC(=O)C(CNC(=O)CC(N)CCCN)NC(=O)C(CO)NC(=O)C(N)CNC2=O)N1` (stereo not drawn) (H-[Dap]S[Dap](ξβ3hOrn)[ΔAla(Z-3-ureido)][X1]; lactam 1-C; configuration not given here), the concentration for half-maximal inhibition (IC50) was above 1000 µM.

For the compound `O=C(Oc1ccccc1C(=O)O)c1ccccc1O` [SALSALATE], the IC50 is above 1000 µM.

As for `O=CN(O)[C@@H](CCCc1ncccn1)CS(=O)(=O)N1CCN(c2ccc(Cl)cn2)CC1`, the IC50 is below 10 µM.

For the compound `CCOC(=O)c1ncn2c1CN(C)C(=O)c1cc(F)ccc1-2` [FLUMAZENIL], the IC50 is above 733 µM.

Turning to `O=C(O)CCCCC1CCSS1` (stereo not drawn) [LIPOIC ACID, ALPHA], the IC50 was above 1000 µM.

Turning to `NC(=O)c1ccccc1O` [SALICYLAMIDE], the half-inhibitory concentration (IC50) is above 1000 µM.

With `CCCc1c2nc(C(=O)O)cc(NC)c2cc2c(=O)cc(C(=O)O)oc12` [MINOCROMIL], the IC50 is above 1000 µM.

Turning to `CN[C@H]1C(O[C@H]2C(OC3C(O)C(O)C(NC(=N)N)C(O)C3NC(=N)N)OC(C)[C@]2(O)C=O)O[C@H](CO)[C@@H](O)[C@@H]1O` (some centres undefined), the IC50 is above 1000 µM.

Regarding `CNCC(O)c1ccc(O)cc1` (centres undefined) [OXEDRINE], the IC50 is above 1000 µM.

Consider `CCC1(c2ccccc2)NC(=O)N(C)C1=O` (centres undefined) [MEPHENYTOIN], for which the IC50 is above 1000 µM.

Consider `CN1CCC(OC(c2ccccc2)c2ccccc2)CC1`, for which the IC50 is 509 µM.

Take `CNCCCC1c2ccccc2C=Cc2ccccc21` [PROTRIPTYLINE]: the IC50 amounted to 129 µM.

With `Fc1ccc([C@@H]2CCNC[C@H]2COc2ccc3c(c2)OCO3)cc1` [PAROXETINE HYDROCHLORIDE], the half-inhibitory concentration (IC50) was determined as 68.9 µM.

With `O=CN(O)C(CCc1ncccn1)CS(=O)(=O)N1CCN(c2ccc(Cl)cn2)CC1` (centres undefined), the IC50 is below 10 µM.

Take `O=C(NO)C1(CS(=O)(=O)c2ccc(Oc3ccc(Cl)cc3)cc2)CCOCC1` [CTS-1027]: the IC50 is 23.4 µM.

For `CC(N/C(=N\C#N)Nc1ccncc1)C(C)(C)C` (centres undefined) [PINACIDIL ANHYDROUS], the IC50 is 161 µM.

Consider `CN1CCC(=C2c3ccccc3CC(=O)c3sccc32)CC1` [KETOTIFEN], for which the IC50 is above 429 µM.

Turning to `CS(=O)(=O)CCNCc1ccc(-c2ccc3ncnc(Nc4ccc(OCc5cccc(F)c5)c(Cl)c4)c3c2)o1` [LAPATINIB], the IC50 is below 10 µM.

In the case of `Cc1ccc(-n2c3c/c(=N\C(C)C)c(Nc4ccc(Cl)cc4)cc-3nc3ccccc32)cc1`, the IC50 was determined as 135 µM.

For `c1ccc2c(CCC3CCNCC3)c[nH]c2c1` [INDALPINE], the IC50 is above 1000 µM.

With `Cc1ccc2c(c1)c1c(n2CCc2ccc(C)nc2)CCN(C)C1` [LATREPIRDINE], the IC50 worked out at 136 µM.

As for `CC(=O)Oc1c(C)cc(Nc2ccn(-c3ccccc3)n2)cc1C`, the IC50 was below 10 µM.

`COc1ccc(Nc2ccn(-c3ccccc3)n2)cc1`: the IC50 was found to be 23 µM.

As to `NCC1(CC(=O)O)CCCCC1` [GABAPENTIN], the IC50 is above 1000 µM.

Consider `N=C(N)NCCN1CCCCCCC1` [GUANETHIDINE], for which the IC50 is above 1000 µM.

Consider `O=C1CC[C@@]2(O)[C@H]3Cc4ccc(O)c5c4[C@@]2(CCN3CC2CC2)[C@H]1O5` [NALTREXONE], for which the IC50 is above 1000 µM.

As to `COc1ccc(OC)c(C(O)C(C)N)c1` (centres undefined) [METHOXAMINE], the IC50 is above 1000 µM.

`CC(=O)NS(=O)(=O)c1ccc(N)cc1` [SULFACETAMIDE]: the IC50 was above 1000 µM.

`C[C@H](CC(=O)Nc1c(Cl)ccc2nc(N3CC[C@H](N)C3)ccc12)c1ccccc1`: the IC50 was below 27 µM.

In the case of `COC(=O)C1=C(C#N)NC(C)=C(C(=O)OC(C)C)C1c1cccc([N+](=O)[O-])c1` (centres undefined) [NILVADIPINE], the IC50 is below 10 µM.

Consider `Cc1cccc(C)c1NC(=O)[C@H]1CCCCN1C`, for which the IC50 is above 1000 µM.

For `CN(C)CC/C=C1/c2ccccc2Sc2ccc(Cl)cc21` [CHLORPROTHIXENE], the IC50 worked out at 27.5 µM.

Consider `CCCN(CCC)S(=O)(=O)c1ccc(C(=O)O)cc1` [PROBENECID], for which the IC50 came to 587 µM.

Take `CCCc1ncc(-c2ccnc(Nc3ccc(S(=O)(=O)NCCOC)cc3)n2)n1C(C)C`: the IC50 is below 10 µM.

For the compound `CCC(COC(=O)c1cc(OC)c(OC)c(OC)c1)(c1ccccc1)N(C)C` (centres undefined) [TRIMEBUTINE], the IC50 was below 10 µM.

For the compound `CC(=O)CC(c1ccccc1)c1c(O)c2ccccc2oc1=O` (centres undefined) [WARFARIN], the IC50 worked out at 115 µM.

With `COc1ccc2c(c1)N(C[C@H](C)CN(C)C)c1ccccc1S2` [LEVOMEPROMAZINE], the IC50 came to 127 µM.

For `CCC1(C)CC(=O)NC1=O` (centres undefined) [ETHOSUXIMIDE], the IC50 is above 1000 µM.

What is called IC50 is the midpoint of a concentration-inhibition curve.

(Values after ChEMBL document CHEMBL4017441, “Mitigating the inhibition of human bile salt export pump by drugs: opportunities provided by physicochemical property modulation, in silico modeling, and structural modification” (Drug Metab Dispos, 2012).)
